# Entries after “also recorded” stand apart in the source; their conditions may differ.
# Tests used:
# [1] = system: relapsed, recurrent, and/or metastatic cervical cancer; conditions: cited from earlier work
# [2] = system: HPAFII (pancreatic carcinoma) and MDA-MB-231 (breast carcinoma) cells; assay: Western blot of ER stress pathways in HPAFII and MDA-MB-231 cells; assay type: cell-based
# Method: Induction of cell death and release of ICD danger signals occurs concomitant with initiation of an ER stress response. Two Tissue Factor positive cell lines, HPAFII (pancreatic carcinoma) and MDA-MB-231 (breast cell carcinoma) were exposed to tisotumab vedotin ADC, an Isotype-MMAE ADC (H00-MMAE, IgG1 MMAE), or free MMAE for 18 hours and induction of ER stress monitored by western blot analysis. Phosphorylation of inositol-requiring transmembrane kinase/endonuclease 1 (IRE1) was detected after treatment with tisotumab vedotin ADC or MMAE free drug (FIG. 6). […] The ability for auristatins to prime the immune system to recognize tumor antigens opens the door for a myriad of combinatorial therapeutic options.
# [3] = system: Tissue Factor positive cell lines; assay: Cell death and ATP/HMGB1 release from Tissue Factor positive cell lines; assay type: cell-based; conditions: for activity across multiple Tissue Factor positive cell lines: release of ICD related molecules
# From the text: Auristatin ADC payloads disrupt the microtubule networks resulting in altered ER localization and function, which ultimately results in ER stress.
# [4] = system: human peripheral blood mononuclear cells (PBMCs); assay: Monocyte/macrophage activation in human PBMCs fed drug-killed MDA-MB-231 cells; assay type: cell-based
# From the text: FIGS. 7A and 7B is a series of graphs in which Tissue Factor positive MDA-MB-231 cells killed with various agents were fed to human peripheral blood mononuclear cells (PBMCs) and immune activation assessed by increased expression of activations markers on innate CD14+ monocyte/macrophages and induction of chemokine and cytokine production.
# Immunogenic cell death, as mediated by MMAE, is regulated cell death that activates adaptive immune responses against antigens from dead and dying tumor cells, and allows for the generation of robust innate immune cell activation and subsequent cytotoxic T cell responses targeted towards specific tumor cell antigens. […] Furthermore, these monocyte/macrophages conditioned by ICD-killed cells promote activation of T cells, as evidenced by production of signature inflammatory cytokines associated with cytotoxic T cell responses.
# [5] = system: MDA-MB-231 xenograft; assay: MDA-MB-231 xenograft model in humanized NSG mice; assay type: in vivo
# Method: The in vivo anti-tumor efficacy of tisotumab vedotin in combination with an anti-PD-1 monoclonal antibody was evaluated in NOD.Cg-PrkdC^scid Il2rg^tm1Wj1/SzJ (NSG) immunodeficient mice (The Jackson Laboratory, Stock No. 005557), humanized by engraftment with human CD34^+ hematopoietic stem cells (Jackson Laboratories, Sacramento). Mice were subcutaneously inoculated with 5×10^6 MDA-MB-231 cells (breast adenocarcinoma; American Tissue Culture Collection (ATCC), cat. no. HTB-26), in 100 μL phosphate-buffered saline (PBS). Before inoculation, cells were cultured in DMEM with high glucose and HEPES without L-glutamine (Lonza, cat. no. BE12-709F), 10% (v/v) donor bovine serum with iron New Zealand Origin (Thermo Fisher Scientific, DBSI, cat. no. 10371-029), 2 mM L-glutamine (Lonza, cat. no. BE17-605E), 1 mM Na-pyruvate (Lonza, cat. no. BE13-115E), MEM non-essential amino acids (Life Technologies, cat. no. 11140) and 1% (v/v) penicillin/streptomycin (Lonza, cat. no. DE17-603E), in CellSTACK culture chambers (Corning, cat. no. 3313).
# Tumor size was determined by caliper measurement at least two times a week and tumor volume was calculated as 0.52×length×width^2. When tumors reached the size of 100 mm^3 mice were randomized in 7 groups (8 mice per treatment group) based on mouse cohort and tumor size (Table 1). Mice were treated with tisotumab vedotin alone (1 mg/kg or 0.5 mg/kg), intravenously, weekly for a maximum of five treatments, or in combination with an anti-PD-1 antibody (i.e., pembrolizumab, KEYTRUDA®, 50 mg concentrate, Merck & Co., Inc., Kenilworth, N.J. USA) or with anti-PD-1 antibody alone. The first dose of the anti-PD-1 antibody (i.e., pembrolizumab) was 10 mg/kg, followed by 5 mg/kg every five days for a maximum of six treatments. Mice in control groups were administered 1 mg/kg of IgG1 isotype control antibody or IgG1 isotype control antibody conjugated to MMAE intravenously, weekly for a maximum of five treatments (Table 1). The IgG1 isotype control antibody is the b12 antibody which is known to bind to HIV-1 gp120. […]
# [6] = system: murine tumor cells that stably express human TF; assay: Immunization of Balb/c mice with drug-killed human TF positive murine tumor cells, then tumor challenge (syngeneic model); assay type: in vivo; conditions: mice immunized with drug-killed human TF positive tumor cells
# Method: Mouse tumor cells are transfected with plasmid constructs encoding human tissue factor (TF) and sgRNA-guided Cas9 nuclease (sgRNA/Cas9) to generate a murine cell line that expresses the human TF. Fluorescence activated cell sorting (FACS) yields a clonal population of murine tumor cells that stably express human TF, these cells are then treated with 1 μg to 5 μg per ml of tisotumab vedotin or 100 nM of MMAE for 4 days. In order to prepare dying cells for immunization, treated murine tumor cells are overlaid atop Histopaque, and centrifuged at 2000 g for 30 minutes. Dead and dying cells are pelleted underneath the Histopaque layer, and viability assessed by trypan blue exclusion. A sample with approximately <20% live cells as measured by trypan blue exclusion is obtained. Flash-frozen tumor cells are prepared by submerging the cells in liquid nitrogen for 10 seconds, followed by immersion in 37° C. water until completely thawed. The liquid nitrogen freeze-thaw process is repeated 5 times. Dead and dying human TF positive tumor cells are resuspended in phosphate buffered saline (PBS) and 2×10^6 cells are injected into the peritoneum of immune-competent Balb/c mice. Seven days later, mice receive a second immunization with dead and dying cells prepared in the same manner.
# Fourteen days after initial immunization with the dead and dying human TF positive tumor cells, mice are subcutaneously implanted with 5×10^6 wild-type tumor cells and monitored for tumor growth. […] As these effects occur in the absence of any administered therapeutic agent, the administration of cells killed by tisotumab vedotin or MMAE is sufficient to generate long-lasting protective immune memory against subsequent tumor cell challenge. Protective immune memory is amplified by treating these mice with tisotumab vedotin in combination with an antibody that binds to murine PD-1.
# [7] = system: human peripheral blood mononuclear cells (PBMCs); assay: T cell activation in CSFE labeled human PBMCs fed drug-killed MDA-MB-231 cells, with or without pembrolizumab; assay type: cell-based; conditions: PBMCs fed drug-exposed MDA-MB-231 cells, 48 hours
# From the text: Induction of the innate immune response following exposure to cancer cells undergoing ICD sets up secondary T cell activation, which can be enhanced by concomitant pembrolizumab treatment.
# [8] = subjects who received tisotumab vedotin
# [9] = HPAFII and MDA-MB-231 cells, 18 hours
substance,measurement,setting,value
"tisotumab vedotin: antibody-drug conjugate comprising an antibody that binds to tissue factor (TF), a protease-cleavable linker, and the microtubule disrupting agent MMAE",efficacy,[1]; 2.0 mg/kg tisotumab vedotin,robust efficacy
same,safety profile,[1]; 2.0 mg/kg tisotumab vedotin,manageable safety profile
same,grade of epistaxis cases,[1]; nearly all of the cases,grade 1
same,grade of the majority of reported peripheral neuropathy cases,[1]; [8],grade 1-2
same,peripheral neuropathy as cause of permanent discontinuation,[1]; [8],leading cause of permanently discontinuation
same,subjects with peripheral neuropathy,[1]; [8],approximately 35%
same,AEs of grade 1-2 conjunctivitis,[1]; tisotumab vedotin alone,frequently reported
same,clinically relevant perturbations in aPTT or PT,[1]; tisotumab vedotin,have not been observed
same,epistaxis (bleeding AE) frequency,[1]; tisotumab vedotin,most common reported AE
same,activation of JNK (phosphorylation),[2]; [9],increased phosphorylation
same,activation of PERK pathway (ATF4 cleavage),[2]; [9],upregulation of ATF4 cleavage
same,phosphorylation of IRE1,[2]; [9],detected
same,"activation of ER stress pathways (phosphorylation of IRE and JNK, cleavage of ATF4)","[2]; HPAFII or MDA-MB-231 cells, 16 hours",trigger multiple ER stress pathways
same,ATP secretion/release,[3]; Tissue Factor positive cells,drove robust A) ATP secretion; also recorded: release the ICD related molecules
same,HMGB1 release,[3]; Tissue Factor positive cells,HMGB1 release; also recorded: release the ICD related molecules
same,cell death,[3]; Tissue Factor positive cells,undergo cell death
same,activity across multiple Tissue Factor positive cell lines,[3],occurs across multiple Tissue Factor positive cell lines
same,activity across multiple Tissue Factor positive cell lines,[3]; listed as Tisotumab vedotin,active on multiple Tissue Factor positive cell lines
same,monocyte/macrophage activation by CD86 expression,"[4]; CD14+ monocyte/macrophages, flow cytometry, PBMCs fed killed MDA-MB-231 cells, compared to IgG1-MMAE ADC or tisotumab alone",drove monocyte/macrophage activations
same,release of innate chemokines,"[4]; PBMCs fed killed MDA-MB-231 cells, compared to IgG1-MMAE ADC or tisotumab alone",induced release of innate chemokines including MIP10
same,chemotactic and inflammatory mediators from monocyte/macrophages,[4]; after uptake of killed Tissue Factor positive cells,elicit strong chemotactic and inflammatory mediators
same,tumor burden as assessed by tumor volume,[5]; tisotumab vedotin 0.5 mg/kg IV weekly,efficiently reduced tumor burden
same,tumor burden as assessed by tumor volume,[5]; tisotumab vedotin 1.0 mg/kg IV weekly,efficiently reduced tumor burden
same,survival after challenge with wild-type tumor cells,[6],increased survival
same,tumor growth after challenge with wild-type tumor cells,[6],delayed tumor growth
same,T cell proliferation (CSFE dilution),[7],drove T cell proliferation
same,production of IFNγ,[7],increased; also recorded: production of T cell specific cytokines
same,production of IL12p70,[7],increased; also recorded: production of T cell specific cytokines

# Source: patent US20230027495A1, “METHODS OF TREATING CANCER WITH A COMBINATION OF AN ANTI-PD-1 ANTIBODY AND AN ANTI-TISSUE FACTOR ANTIBODY-DRUG CONJUGATE” (Genmab A/S, priority 2019, published 2023)
